From patent publication US20220062247A1, “USE OF A PAR-1 ANTAGONIST FOR THE TREATMENT OF A CHRONIC INFLAMMATORY INTESTINAL DISEASE” (CVASTHERA, priority 2018, published 2022) come the findings set out here.

Molecules are shown by their SMILES.

Assay [1] relates to inflammatory bowel disease induced by 2,4,6-trinitrobenzenesulfonic acid (TNBS). The assay can be described thus: Colitis induced by intra-colonical TNBS in rats (body weight, DAI score, colon wall thickness, macroscopic damage score, MPO). Type of assay: in vivo, male laboratory rat of the Wistar strain. The text has this:
The purpose of this study is to assess the effectiveness of two PAR-1 antagonists, vorapaxar and 3-2-(chloro-phenyl)-1-[4-(4-fluoro-benzyl)-piperazine-1-yl]propenone (hereinafter, referred to as CSI) in a model of an inflammatory bowel disease induced by 2,4,6-trinitrobenzenesulfonic acid (TNBS) in a male laboratory rat of the Wistar strain. This model is described in the publication of Whittle et al., 2003, in Methods Mol. Biol., 225, 209-222.
In this induced colitis model, the inflammatory reaction is measured every day and is well established 7 days after intra-colonical administration of TNBS.
(§1) Different parameters are measured: the weight of the rats, the presence of blood in the faeces and the diarrhoeas assessed by the disease activity index (DAI score), the intensity of pain (assessed by Von Frey filaments technique measured on days 3 and 7).
The rats are sacrificed 7 days after the beginning of the treatment and the macroscopic damages, the oedema and a marker of the inflammation, myeloperoxidase (MPO), are quantified.
The experiments with the PAR-1 antagonists are carried out in two studies, relating to vorapaxar and CSI, respectively.
The colitis is induced by intra-colonical administration of 2,4,6-trinitrobenzenesulfonic acid (TNBS) (30 mg of TNBS in 0.25 ml of a 50% ethanol/NaCl solution) via a catheter (polyethylene (PE)-60) inserted 8 cm proximally from the anus.
Four groups of 10 rats receive an intra-colonical administration of TNBS, as well as a per os treatment of vorapaxar at the dose of 2.5 mg/kg/day or of CSI at doses of 10 and 40 mg/kg/day or of prednisolone (a compound proposed by the prior art for the treatment of IBDs) at the dose of 3 mg/kg/day. The per os treatments start 1 h before the intra-colonical administration of TNBS.
As a negative comparative example, 1 group of 10 rats receives an intra-colonical administration of TNBS and of the vorapaxar vehicle (phosphate buffered saline—PBS) or of the CSI vehicle (carboxymethyl cellulose—CMC at 1%) per os daily.
Moreover, 1 group of 6 control rats receives an intra-colonical administration of NaCl instead of TNBS.
The DAI score is determined as follows. The development of the disease is estimated on a daily basis. The consistence of the excrements, as well as the presence of blood in the faeces assessed with the Hemoccult® paper test, are respectively quantified by the seriousness scales of Table 3 hereinbelow. The obtained values are added together to obtain the DAI score.
The macroscopic damage score is assessed according to the protocol described in the publication of Comera et al., 1999, Dig. Dis. Sci. 44: 1448-1457, as follows. On day 7 after induction of the colitis, the rats are sacrificed by carbon dioxide CO2 inhalation, the colon (from the anus to the Caecum) is removed and the macroscopic damages are assessed according to the parameters observed and presented in Table 4 hereinbelow, to determine the macroscopic damage score.

The subject of assay [2] is inflammatory bowel disease, Dextran Sulphate sodium (DSS). The assay can be described thus: Dextran Sulphate sodium (DSS) model of inflammatory bowel disease in mice (body weight, DAI, macroscopic damage score, MPO). Type of assay: in vivo, mice (C57B16). The text has this: The purpose of this study is to assess the effectiveness of a PAR-1 antagonist according to the invention, 3-2-(chloro-phenyl)-1-[4-(4-fluoro-benzyl)-piperazine-1-yl]propenone (CSI) in a model of an inflammatory bowel disease, Dextran Sulphate sodium (DSS) in mice. This DSS model is described in the publication of Choi et al., 2010, in J. Biomed. Biotechnol., 2010:943516; doi: 10.1155/2010/943516.
This model features a cytokine profile Th1 in its acute phase, periods of remission and relapses, it is consequently very similar to ulcerous colitis. The DSS distributed in the drinking water can cause an inflammation of the digestive tract and produce colorectal tumours in the rodent. The DSS is widely used as an animal model of human inflammatory diseases of the digestive tract.
The present study is conducted in 7-week-old mice (C57B16). The 5-aminosalicylic acid serves as a positive comparative example.
The first day of the study starts with the daily administration of a beverage containing DSS at 5% p/p in water to the mice, until the day of sacrifice. The development of the disease is estimated on a daily basis, with accurate weighting of the mice, the assessment of the consistence of the excrements as well as the presence of blood in the faeces with the Hemoccult® paper test. The DAI score is calculated as indicated in Example 1.
Each day, groups of mice receive per os CSI at different concentrations, or 5-aminosalicylic acid (5-ASA), or the vehicle alone, that is to say carboxymethyl cellulose (CMC) at 1%.
The mice are sacrificed 7 days after the beginning of the treatment. The colon is excised and the macroscopic damages are assessed. The colon is then cut into 4 pieces, the distal portion is placed in an Eppendorf tube and stored at −80° C. until the measurement of the activity of myeloperoxidase and the quantification of proteins. The proximal portion is kept in formaline at 10% for future histological analyses. The two other central portions are placed in Eppendorf tubes and stored at −80° C. for future analyses.
On day 7, after having sacrificed the animals, the colon is removed. The macroscopic damage score, assessed as described in Example 1, and the myeloperoxidase (MPO) activity are determined.

Assay [3] deals with nociceptive response induced by TNBS. The assay can be described thus: Nociceptive response (allodynia) by Von Frey filaments technique in TNBS colitis rats. As to conditions: 7 days after colitis induction. It is filed as in vivo, rat. As for the experimental part: as §1
The intensity of the pain is measured by the Von Frey filaments technique on days […], according to the protocol described in the publication of Auge et al., 2013, Eur. J. Pharmacol. 707: 32-40.
The effect on the nociceptive response, measured by Von Frey filaments technique according to the mass of Von Frey filaments, is shown in FIG. 10 for prednisolone and in FIG. 11 for vorapaxar.

Assay [4] has as its system human colon epithelial cells Caco2. The assay can be described thus: Epithelial cells repair: cicatrisation of a lesion on a Caco2 monolayer. Type of assay: cell-based. As for the experimental part:
A lesion is practiced using a sterilised forceps on human colon epithelial cells Caco2 in monolayer and at a confluence. Afterwards, the cells are rinsed twice with sterilised […] and then placed in an adequate culture medium. In this medium, vorapaxar at different concentrations (10 nM, 100 nM, 1 μM, 10 μM) or the vehicle (control) are added in independent culture dishes. The cicatrisation of the lesion is supervised and analysed using a confocal microscope for 28 h. The percentage of the lesioned surface of the lesion is determined for each tested condition, 4 h, 22 h and 28 h after the lesion. The obtained results are shown in FIG. 12, respectively in a/, b/ and c/.

Where [5] appears, read: DSS 5%, Group 2, 10 mg/kg/24 h per os, Moy.
Where [6] appears, read: DSS 5%, Group 3, 40 mg/kg/24 h per os, Moy.

Regarding `O=C(/C=C/c1ccccc1Cl)N1CCN(Cc2ccc(F)cc2)CC1` [CSI, 3-2-(chloro-phenyl)-1-[4-(4-fluoro-benzyl)-piperazine-1-yl]propenone], the “disease activity index (DAI)” value in assay [1] (10 mg/kg daily, 7th day) is “significantly reduces”. The MPO activity entry in assay [1] (40 mg/kg/day, day 7) was “significantly reduced”. Further, the macroscopic damage score entry in assay [1] (10 and 40 mg/kg/day (tested doses), day 7, vs vehicle group) was “significantly reduces”. In addition, the “weight loss (body weight)” value in assay [1] (10 or 40 mg/kg/day per os) was “alleviate”. Further, in assay [2] (setting [5]), the “Disease activity index, D1” value is on record as 1.40; the “Disease activity index, D2” value is on record as 1.35; the “Disease activity index, D3” value is on record as 2.00; the “Disease activity index, D4” value is 3.75. Also, in assay [2] (setting [5]), the “Disease activity index, D5” value amounted to 4.00; the “Disease activity index, D6” value was determined as 4.00; the “Disease activity index, D7” value turned out to be 2.90; the “Variation of the body weight of the mice in comparison with day D0, D1-D0” value is given as 0.67 g. Also, in assay [2] (setting [5]), the “Variation of the body weight of the mice in comparison with day D0, D2-D0” value is reported as 0.44 g; the “Variation of the body weight of the mice in comparison with day D0, D3-D0” value came out at 0.45 g; the “Variation of the body weight of the mice in comparison with day D0, D4-D0” value was -0.42 g; the “Variation of the body weight of the mice in comparison with day D0, D5-D0” value was -2.15 g. For the same compound, in assay [2] (setting [5]), the “Variation of the body weight of the mice in comparison with day D0, D6-D0” value was -3.79 g and the “Variation of the body weight of the mice in comparison with day D0, D7-D0” value is -5.19 g. In assay [2] (DSS 5%, Group 2, 10 mg/kg/24 h per os, day 7, Moy), this compound gave a macroscopic damage score of 5.2. Further, in assay [2] (DSS 5%, Group 2, 10 mg/kg/24 h per os, day 7, colon, Moy), the MPO activity is given as 12.99 mU/mg proteins. In addition, in assay [2] (setting [6]), the “Disease activity index, D1” value is 2.00; the “Disease activity index, D2” value is given as 1.10; the “Disease activity index, D3” value is 1.50; the “Disease activity index, D4” value was 2.80. For the same compound, in assay [2] (setting [6]), the “Disease activity index, D5” value was found to be 4.00; the “Disease activity index, D6” value turned out to be 4.00; the “Disease activity index, D7” value was found to be 3.00; the “Variation of the body weight of the mice in comparison with day D0, D1-D0” value is -0.08 g. In addition, in assay [2] (setting [6]), the “Variation of the body weight of the mice in comparison with day D0, D2-D0” value was -0.07 g; the “Variation of the body weight of the mice in comparison with day D0, D3-D0” value was -0.19 g; the “Variation of the body weight of the mice in comparison with day D0, D4-D0” value is -0.68 g; the “Variation of the body weight of the mice in comparison with day D0, D5-D0” value is -1.07 g. Besides, in assay [2] (setting [6]), the “Variation of the body weight of the mice in comparison with day D0, D6-D0” value is -2.69 g and the “Variation of the body weight of the mice in comparison with day D0, D7-D0” value was -4.00 g. The compound further returned a macroscopic damage score in assay [2] (DSS 5%, Group 3, 40 mg/kg/24 h per os, day 7, Moy) of 4.0. This compound gave an MPO activity in assay [2] (DSS 5%, Group 3, 40 mg/kg/24 h per os, day 7, colon, Moy) of 6.9 mU/mg proteins. For the same compound, in assay [2] (DSS mice, 10 mg/kg daily (Group 2), 7th day), the disease activity index entry is recorded as “significantly reduces”. Besides, the MPO activity result in assay [2] (DSS mice, 40 mg/kg (Group 3)) is reported as “strongly reduced”. Moreover, the disease activity index entry in assay [2] (DSS mice, 40 mg/kg (Group 3), 4th and 7th day, vs vehicle group (Group 4)) is reported as “significantly reduced”. Besides, in assay [2] (DSS mice, 40 mg/kg (Group 3), 6th day), the weight loss entry was “significantly reduces”. Besides, the “daily signs of colitis” value in assay [2] (DSS mice, 10 and 40 mg/kg, seems more effective than 5-ASA) was “reduces, significantly and in a dose-dependent way”. The macroscopic damage score entry in assay [2] (DSS mice, both tested doses 10 and 40 mg/kg (Groups 2 and 3), vs vehicle group (Group 4)) is “significantly reduces”.

`C[C@]12C=CC(=O)C=C1CC[C@@H]1[C@@H]2[C@@H](O)C[C@@]2(C)[C@H]1CC[C@]2(O)C(=O)CO` [prednisolone]: the “apparition of oedema (thickness of the wall of the colon)” value in assay [1] (3 mg/kg daily oral, 7 days) was “does not prevent”. In addition, the “disease activity index (DAI)” value in assay [1] (3 mg/kg daily oral, all observed points) is “does not prevent the increase”. For the same compound, the macroscopic damage score entry in assay [1] (3 mg/kg, day 7, vs vehicle group) is given as “significantly reduces”. The “weight loss (body weight)” value in assay [1] (3 mg/kg/day per os) is reported as “alleviate”. In addition, the MPO activity entry in assay [1] (3 mg/kg/day, day 7, vs vehicle group) is reported as “significantly reduce”. The “allodynia-type response (Von Frey)” value in assay [3] (3 mg/kg/day) is given as “only a partial inhibition”.

Consider `CCOC(=O)N[C@@H]1CC[C@@H]2[C@@H](C1)C[C@H]1C(=O)O[C@H](C)[C@H]1[C@H]2/C=C/c1ccc(-c2cccc(F)c2)cn1` [vorapaxar, ethyl N-[(1R,3aR,4aR,6R,8aR,9S,9aS)-9-[(E)-2-[5-(3-fluorophenyl)pyridin-2-yl]ethenyl]-1-methyl-3-oxo-3a,4,4a,5,6,7,8,8a,9,9a-decahydro-1H-benzo[f][2]benzofuran-6-yl]carbamate], for which the “disease activity index (DAI)” value in assay [1] (2.5 mg/kg daily, 7th day) is listed as “significantly reduces”; in assay [1] (2.5 mg/kg, as of the 1st day, vs vehicle group) it was “significantly reduced”. In addition, the “apparition of oedema (thickness of the wall of the colon)” value in assay [1] (2.5 mg/kg daily, 7th day, vs vehicle group) is on record as “significantly reduces”. In addition, in assay [1] (2.5 mg/kg/day per os, as of the 2nd day), the “weight loss (body weight)” value was “significantly reduces”. The macroscopic damage score result in assay [1] (2.5 mg/kg/day, day 7, vs vehicle group) is reported as “significantly reduces”. Further, the “cicatrisation of the lesion (percentage of the lesioned surface)” value in assay [4] (Caco2, 4 h after the lesion, 100 nM, 1 μM and 10 μM) is recorded as “highly enhanced”; in assay [4] (Caco2, 22 h after the lesion, 10 nM to 10 μM), “amplifies the cicatrisation surface in a concentration-dependent way”; in assay [4] (Caco2, 28 h after the lesion, from 100 nm to 10 μM), “complete cicatrisation”. The “allodynia-type response (Von Frey)” value in assay [3] (2.5 mg/kg/day) is reported as “significantly inhibits”.
